ChEMBL document CHEMBL5244281, “Tackling multidrug-resistant Staphylococcus aureus by natural products and their analogues acting as NorA efflux pump inhibitors” (Bioorg Med Chem, 2023)
≈ marks a conversion by molar mass, not a printed value.

Legend:
Staphylococcus aureus [1] = test: Antibacterial activity against Staphylococcus aureus RN4220 expressing MsrA efflux protein assessed as bacterial growth inhibition incubated for 24 hrs by resazurin based microdilution assay; assay type: functional
Staphylococcus aureus [2] = test: Antibacterial activity against Staphylococcus aureus IS-58 expressing TetK efflux protein assessed as bacterial growth inhibition incubated for 24 hrs by resazurin based microdilution assay; assay type: functional
Staphylococcus aureus [3] = test: Antibacterial activity against Staphylococcus aureus 1199B expressing NorA efflux protein assessed as bacterial growth inhibition incubated for 24 hrs by resazurin based microdilution assay; assay type: functional
Staphylococcus aureus [4] = test: Antibacterial activity against wild type Staphylococcus aureus 1199 assessed as bacterial growth inhibition incubated for 24 hrs by resazurin based microdilution assay; assay type: functional
LS180 = test: Cytotoxicity against human LS180 cells; assay type: functional, cell-based
[5] = biological target: ATP-dependent translocase ABCB1 (Homo sapiens, UniProt P08183); test: Inhibition of P-gp mediated efflux in human LS180 cells using digoxin as substrate incubated for 90 mins by fluorescence assay; assay type: cell-based
Staphylococcus aureus [6] = test: Antibacterial activity against Staphylococcus aureus 1199B overexpressing NorA efflux pump assessed as bacterial growth inhibition incubated for 18 hrs by broth dilution method; assay type: functional
Staphylococcus aureus [7] = test: Antibacterial activity against Staphylococcus aureus K1758 with NorA knockout assessed as bacterial growth inhibition incubated for 18 hrs by broth dilution method; assay type: functional
[8] = biological target: T1, Quinolone resistance protein NorA (Staphylococcus aureus) (UniProt P0A0J7); test: Inhibition of NorA efflux pump in Staphylococcus aureus 1199B overexpressing NorA efflux pump assessed as decrease in ciprofloxacin MIC at 1/4 times MIC and measured for 45 mins in presence of ciprofloxacin by fluorimetric analysis (Rvb=8 ug/ml)
T1 sequence (whole entry): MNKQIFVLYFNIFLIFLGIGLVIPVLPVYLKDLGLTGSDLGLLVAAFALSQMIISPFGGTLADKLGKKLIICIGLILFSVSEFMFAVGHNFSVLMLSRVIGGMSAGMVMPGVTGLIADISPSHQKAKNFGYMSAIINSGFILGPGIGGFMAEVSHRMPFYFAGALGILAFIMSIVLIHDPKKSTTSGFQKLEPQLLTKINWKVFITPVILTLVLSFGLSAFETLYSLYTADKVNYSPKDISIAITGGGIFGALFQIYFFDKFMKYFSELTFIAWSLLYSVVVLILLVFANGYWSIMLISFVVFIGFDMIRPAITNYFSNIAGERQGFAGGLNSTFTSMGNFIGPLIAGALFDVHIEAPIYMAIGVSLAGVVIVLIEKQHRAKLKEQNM

[9] = biological target: T1, Quinolone resistance protein NorA (Staphylococcus aureus); test: Inhibition of NorA efflux pump in Staphylococcus aureus 1199B overexpressing NorA efflux pump assessed as decrease in norfloxacin MIC at 1/4 times MIC and measured for 45 mins in presence of norfloxacin by fluorimetric analysis (Rvb=32 ug/ml)
Staphylococcus aureus [10] = test: Synergistic antibacterial activity against Staphylococcus aureus 1199B overexpressing NorA efflux pump assessed as fractional inhibitory concentration index in presence of norfloxacin incubated for 18 hrs by checkerboard assay; assay type: functional
Staphylococcus aureus [11] = test: Synergistic antibacterial activity against Staphylococcus aureus 1199B overexpressing NorA efflux pump assessed as fractional inhibitory concentration index in presence of ciprofloxacin incubated for 18 hrs by checkerboard assay; assay type: functional
Staphylococcus aureus [12] = test: Antibacterial activity against fluoroquinolone-resistant Staphylococcus aureus 1199B overexpressing NorA gene assessed as bacterial growth inhibition by microdilution method; assay type: functional
[13] = biological target: Quinolone resistance protein NorA (Staphylococcus aureus, UniProt P0A0J7); test: Inhibition of NorA efflux pump in Staphylococcus aureus 1199B overexpressing NorA gene assessed as reduction in EtBr efflux inhibition by spectrofluorometric assay
[14] = biological target: T1, Quinolone resistance protein NorA (Staphylococcus aureus); test: Inhibition of NorA efflux pump in Staphylococcus aureus 1199B overexpressing NorA gene assessed as efflux inhibition at 2 mg/L by Hoechst 33342 staining based fluorescence assay
[15] = biological target: T1, Quinolone resistance protein NorA (Staphylococcus aureus); test: Inhibition of NorA efflux pump in Staphylococcus aureus 1199B overexpressing NorA efflux pump assessed as reduction in ciprofloxacin MIC at […] by resazurin based assay (Rvb= 6.25 ug/ml)
Staphylococcus aureus [16] = test: Synergistic antimicrobial activity against Staphylococcus aureus 1199B overexpressing NorA efflux pump assessed as reduction in norfloxacin MIC incubated for 24 hrs by MTT colorimetric assay (Rvb= 128 mg/ml); assay type: functional
Staphylococcus aureus [17] = test: Synergistic antimicrobial activity against Staphylococcus aureus 1199B overexpressing NorA efflux pump assessed as fractional inhibitory concentration index incubated for 24 hrs by checkerboard method; assay type: functional
Staphylococcus aureus [18] = test: Synergistic antimicrobial activity against Staphylococcus aureus 1199B overexpressing NorA efflux pump assessed as norfloxacin MIC incubated for 24 hrs by broth dilution method; assay type: functional
[19] = tested on: Staphylococcus haemolyticus; test: Antibacterial activity against Staphylococcus haemolyticus assessed as bacterial growth inhibition by microdilution assay; assay type: functional
[20] = tested on: Staphylococcus haemolyticus; test: Antibacterial activity against Staphylococcus haemolyticus grown in blood assessed as bacterial growth inhibition by microdilution assay; assay type: functional
[21] = biological target: UDP-N-acetylmuramoyl-L-alanyl-D-glutamate--2,6-diaminopimelate ligase (Mycobacterium tuberculosis (strain ATCC 25618 / H37Rv), UniProt P9WJL3); test: Inhibition of MurE ligase activity in Mycobacterium tuberculosis assessed as release of inorganic phosphate by hydrolysis of ATP using UDP-MurNAc-l-Ala-d-Glu as substrate in presence of ATP incubated for 30 mins by absorbance assay
MCF7 = test: Cytotoxicity against human MCF7 cells assessed as reduction in cell viability by sulforhodamine B assay; assay type: functional, cell-based
A549 = test: Cytotoxicity against human A549 cells assessed as reduction in cell viability by sulforhodamine B assay; assay type: functional, cell-based
WI-38 = test: Cytotoxicity against human WI-38 cells assessed as reduction in cell viability by sulforhodamine B assay; assay type: functional, cell-based
Staphylococcus aureus [22] = test: Synergistic antibacterial activity against methicillin-susceptible Staphylococcus aureus 1199B overexpressing NorA efflux pump assessed as reduction in norfloxacin MIC at 64 ug/ml incubated for 18 to 24 hrs in presence of norfloxacin by MTT assay; assay type: functional; settings: dose 64 µg/ml, time 18-24 hrs
Staphylococcus aureus [23] = test: Synergistic antibacterial activity against methicillin-susceptible Staphylococcus aureus 1199B overexpressing NorA efflux pump assessed as fractional inhibitory concentration index at 64 ug/ml incubated for 18 to 24 hrs in presence of norfloxacin by checkerboard microdilution assay; assay type: functional; settings: dose 64 µg/ml; time 18-24 hrs
Staphylococcus aureus [24] = test: Antibacterial activity against wild type Staphylococcus aureus 1199 assessed as bacterial growth inhibition incubated for 24 hrs by microdilution method; assay type: functional
Staphylococcus aureus [25] = test: Antibacterial activity against Staphylococcus aureus 1199B overexpressing NorA efflux protein assessed as bacterial growth inhibition incubated for 24 hrs by microdilution method; assay type: functional
Staphylococcus aureus [26] = test: Antibacterial activity against Staphylococcus aureus 1199B overexpressing NorA efflux protein assessed as bacterial growth inhibition; assay type: functional
Staphylococcus aureus [27] = test: Antibacterial activity against Staphylococcus aureus K1758 with NorA deletion mutant assessed as bacterial growth inhibition; assay type: functional
Staphylococcus aureus [28] = test: Synergistic antibacterial activity against Staphylococcus aureus 1199B overexpressing NorA efflux protein assessed as fractional inhibitory concentration index in presence of norfloxacin by checkerboard assay; assay type: functional
Staphylococcus aureus [29] = test: Synergistic antibacterial activity against Staphylococcus aureus 1199B overexpressing NorA efflux protein assessed as fractional inhibitory concentration index in presence of ciprofloxacin by checkerboard assay; assay type: functional
Staphylococcus aureus [30] = test: Synergistic antibacterial activity against Staphylococcus aureus 1199B overexpressing NorA efflux protein assessed as fractional inhibitory concentration index in presence of moxifloxacin by checkerboard assay; assay type: functional
Staphylococcus aureus [31] = test: Synergistic antibacterial activity against Staphylococcus aureus 1199B overexpressing NorA efflux protein assessed as fractional inhibitory concentration index in presence of chloramphenicol by checkerboard assay; assay type: functional

CC1=CC(=O)c2ccccc2C1=O [MENADIONE]
MIC (Staphylococcus aureus [1]): 64 µg/mL (≈ 372 µM)
MIC (Staphylococcus aureus [2]): 64 µg/mL (≈ 372 µM)
MIC (Staphylococcus aureus [3]): 64 µg/mL (≈ 372 µM)
MIC (Staphylococcus aureus [4]): 64 µg/mL (≈ 372 µM)

CC(=O)c1c(-c2ccc(F)cc2)cn(-c2ccc(C)cc2)c1C
IC50 (LS180): > 100 µM
IC50 [5]: 11.2 µM

COc1cc(/C=C/C(=O)N/N=C/c2ccc[nH]2)cc(OC)c1OC
MIC (Staphylococcus aureus [6]): 64 µg/mL (≈ 194 µM)
MIC (Staphylococcus aureus [7]): 64 µg/mL (≈ 194 µM)
MIC [8]: 0.5 µg/mL
MIC [9]: 1 µg/mL
fractional inhibitory concentration index (FICI) (Staphylococcus aureus [10]): 0.56
fractional inhibitory concentration index (FICI) (Staphylococcus aureus [11]): 0.56

C[C@@H]1O[C@@H](Oc2c(-c3ccc(O)cc3)oc3cc(O)cc(O)c3c2=O)[C@H](OC(=O)/C=C/c2ccc(O)cc2)[C@H](O)[C@H]1OC(=O)/C=C/c1ccc(O)cc1
MIC (Staphylococcus aureus [12]): 35 µM
IC50 [13]: 2 µM
inhibition [14]: 40%
MIC [15]: 0.78 µg/mL

C/C=C/C1=CC2C(=CC1=O)O[C@H](c1ccc(OC)c(OC)c1)[C@H]2C (stereo not given in full)
MIC (Staphylococcus aureus [16]): 32000 µg/mL
fractional inhibitory concentration index (FICI) (Staphylococcus aureus [17]): 0.25

COC[C@@H](Cc1ccc(OC)c(OC)c1)[C@@H](COC)Cc1ccc(OC)c(OC)c1
MIC (Staphylococcus aureus [18]): 12.7 µg/mL

CC[C@H](C)C(=O)c1c(O)cc(O)cc1OC/C=C(\C)CCC=C(C)C [OLYMPICIN A]
MIC [19]: ≥ 16 µg/mL
MIC [20]: > 32 µg/mL
IC50 [21]: 75 µM
IC50 (MCF7): 12.5 µM
IC50 (A549): 10.5 µM
IC50 (WI-38): 8.9 µM

COc1cc2c(cc1O)CC[n+]1cc3c(OC)c(OC)ccc3cc1-2 [JATRORRHIZINE]
MIC (Staphylococcus aureus [22]): 16 µg/mL
fractional inhibitory concentration index (FICI) (Staphylococcus aureus [23]): 0.375

O=C(OC[C@H]1O[C@@H](OC(=O)c2cc(O)c(O)c(OC(=O)c3cc(O)c(O)c(O)c3)c2)[C@H](OC(=O)c2cc(O)c(O)c(OC(=O)c3cc(O)c(O)c(O)c3)c2)[C@@H](OC(=O)c2cc(O)c(O)c(OC(=O)c3cc(O)c(O)c(O)c3)c2)[C@@H]1OC(=O)c1cc(O)c(O)c(OC(=O)c2cc(O)c(O)c(O)c2)c1)c1cc(O)c(O)c(OC(=O)c2cc(O)c(O)c(O)c2)c1 [TANNIC ACID]
MIC (Staphylococcus aureus [24]): ≥ 1020 µg/mL
MIC (Staphylococcus aureus [25]): ≥ 1020 µg/mL

Nc1ccccc1-c1cc2ccccc2[nH]1
MIC (Staphylococcus aureus [26]): 128 µg/mL (≈ 615 µM)
MIC (Staphylococcus aureus [27]): 64 µg/mL (≈ 307 µM)
fractional inhibitory concentration index (FICI) (Staphylococcus aureus [28]): >=0.5
fractional inhibitory concentration index (FICI) (Staphylococcus aureus [29]): >=0.5
fractional inhibitory concentration index (FICI) (Staphylococcus aureus [30]): >=0.5
fractional inhibitory concentration index (FICI) (Staphylococcus aureus [31]): >=0.5
